Reference: patent publication US10494412B2, “Peptides” (HOX THERAPEUTICS LIMITED, priority 2015, dated 2019)
Where two headings read alike, the source gives them in different places. Where no end group is shown, it is not given here.

Assays:
PC3 cells [1] = test: cells; details: Homo sapiens, PC-3, 2 h, read-out: PC3 2 hr IC50 (±SD)
Protocol: (§1) The cytotoxicity of the peptides on the prostate cancer derived cell lines DU145 and PC3 was tested as previously described (Morgan et al. 2014, ibid), using the MTT assay for metabolic activity. The cytotoxic drug Docetaxel (a standard chemotherapeutic drug) was included as a positive control.
(§2) Doses are in μM (micromoles), and the mean value from 3 experiments is given along with the standard deviation.

[2] = Body weight of PC3 tumour bearing mice; format: in vivo; details: intratumoural
Protocol: PC3 cells were injected subcutaneously into female or male Balb-c nude mice aged 6 to 12 weeks (Harlan, UK). When the tumour size reached 100 mm^3 mice were injected intratumouraly with PBS, HXR9 or HTL001 at the intervals shown in FIG. 3. Mice were sacrificed when the tumour size reached 1000 mm^3 or at the end of the experiment (36 days). Tumours were then excised and immersed in 10% formalin for 24 h and processed for paraffin embedding. 5 μm slices of xenografts in paraffin blocks were made using microtome and different proteins detected by immunohistochemistry.

PC3 cells [3] = details: for PC3 2 hr IC50 change relative to HXR9: fold difference in IC50 relative to HXR9, 2 hr; for PC3 96 hr IC50 change relative to HXR9: fold difference in IC50 relative to HXR9, 96 hr
Protocol: as §1, §2

HOXB4/PBX2 dimers = biological target: T1, HOXB4/PBX2 dimers (Homo sapiens, UniProt P40425); test: Cell based ELISA assay for HOX/PBX binding; details: MDA-MB-231 cells, 4 hours, compared to DMSO, SEM, read-out: % inhibition of HOXB4/PBX2 dimer formation
T1 construct: endogenous in cells; host or cells: MDA-MB-231
T1 sequence (P40425 1-430): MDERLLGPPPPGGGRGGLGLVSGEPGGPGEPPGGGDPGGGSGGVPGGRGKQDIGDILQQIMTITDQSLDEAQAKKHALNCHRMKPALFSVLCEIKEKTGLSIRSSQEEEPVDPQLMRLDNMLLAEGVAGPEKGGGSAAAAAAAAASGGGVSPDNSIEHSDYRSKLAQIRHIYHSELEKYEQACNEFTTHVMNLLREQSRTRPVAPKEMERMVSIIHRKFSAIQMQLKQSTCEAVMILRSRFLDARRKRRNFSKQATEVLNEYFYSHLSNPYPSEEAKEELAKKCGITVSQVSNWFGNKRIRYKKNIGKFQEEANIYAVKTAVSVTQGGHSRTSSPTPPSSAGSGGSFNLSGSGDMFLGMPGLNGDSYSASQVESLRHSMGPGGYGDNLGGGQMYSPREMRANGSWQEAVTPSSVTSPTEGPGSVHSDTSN
Protocol: In order to directly assess the ability of each peptide to disrupt HOX/PBX binding a cell-based assay system was developed that could allow the formation of HOX/PBX/DNA dimers. Cultured MDA-MB-231 cells were treated with 10 μM of each peptide for 4 hours and then used to generate a cell lysate using a standard preparation method as described below. HOXB4/PBX2 dimers were then measured using an ELISA-based system as detailed in the table below. The values from this assay are expressed as % inhibition of dimer formation compared to a negative control (DMSO).
1. Collect approximately 5.0×10^7 cells by low-speed centrifugation at RT for 5 min. Carefully remove culture medium.
2. Wash the cellular debris (pellet) with PBS at RT, and collect by low-speed centrifugation. Carefully remove supernatant (total protein).
3. Add 1.0 ml of pre-cold RIPA buffer (or other appropriate buffer) with freshly added (Protease Inhibitors) and/or (Phosphatase Inhibitors). Gently resuspend cells in RIPA buffer with a pipet and incubate on ice for 30 min.
4. Further disrupt and homogenize cells by passing through a 21-gauge needle, dounce homogenization or sonication, taking care not to raise the temperature of the lysate. (Optional: Add 10 μl of 10 mg/ml PMSF stock) Incubate 30 min on ice.
5. Transfer to microcentrifuge tube(s) and centrifuge at 10,000×g for 10 min at 4° C. […]

[4] = read-out: PC3 2 hr IC50 (±SD), PC3 cells, 2 hr, MTT, mean of 3 experiments ± SD
[5] = read-out: PC3 96 hr IC50 (±SD), PC3 cells, 96 hr, MTT, mean of 3 experiments ± SD

PC3 2 hr IC50 change relative to HXR9 (PC3 cells [3]) [fold]	PC3 96 hr IC50 change relative to HXR9 (PC3 cells [3]) [fold]	IC50 (PC3 cells [3]; [4]) [µM]	IC50 (PC3 cells [3]; [5]) [µM]	Molecule	further results
				CC(=O)O[C@@]12CO[C@@H]1C[C@H](O)[C@@]1(C)C(=O)[C@H](O)C3=C(C)[C@@H](OC(=O)[C@H](O)[C@@H](NC(=O)OC(C)(C)C)c4ccccc4)C[C@@](O)([C@@H](OC(=O)c4ccccc4)[C@H]21)C3(C)C [Docetaxel]	IC50 (PC3 cells [1]): 4 µM
				WYPWMKKHHRRRRRRRRR [HXR9, WYPWMKKHHRRRRRRRRR]	Maximum % weight loss [2]: 0%
				WYPAMKKHHRRRRRRRRR [CXR9, WYPAMKKHHRRRRRRRRR]	IC50 (PC3 cells [3]; 2 h): > 80 µM; IC50 (PC3 cells [3]; 96 h): > 80 µM
1.53	2.53	19	17	WYKWMKKHHRRRRRRRRR [HXR9KS3]	
1.32	2.05	22	21	WYKWMKKRRRRRRRRR [HXR9KS3noH]	
0.48	0.80	60	54	WYPWMKKRRRRRRRRR [HXR9noH]	
				WYKWMKKAARRRRRRRRR [HTL001, WYKWMKKAARRRRRRRRR]	inhibition at 10 µM (HOXB4/PBX2 dimers): 28.2%; Maximum % weight loss [2]: 0%
0.64	1.08	45	40	WYPWMKKAARRRRRRRRR [HXR9AS7]	
